Values of other authors in patent publication US20040268437A1, “Method for biosynthesizing the serotonin derivatives in plants” (CHONNAM NATIONAL UNIVERSITY, priority 2003, published 2004).

Key:
potato THT = settings: potato THT; cited from earlier work
[1] = test system: recombinant hot pepper THT; settings: hydroxycinnamic acid derivative substrates; cited from earlier work

Compound	Use as amine substrate (potato THT)	Maximum reaction velocity (Vmax) relative to coumaroyl-CoA [1] [times]
N=C(N)NCCCCN [agmatine]	not used as a substrate	–
NCCCCCN [cadaverin]	not used as a substrate	–
CC(C)(COP(=O)(O)OP(=O)(O)OC[C@H]1O[C@@H](n2cnc3c(N)ncnc32)[C@H](O)[C@@H]1OP(=O)(O)O)[C@@H](O)C(=O)NCCC(=O)NCCSC(=O)C=Cc1ccccc1 [cinnamoyl-CoA]	–	15
NCCCCN [putricine]	not used as a substrate	–
NCCCCNCCCN [spermidine]	not used as a substrate	–
NCCCNCCCCNCCCN [spermine]	not used as a substrate	–
